Columns and labels:
[1] = Cmax after oral administration at a dose of 4 mg/kg in rat; assay type: ADME, organism-based; design: dose 4 mg/kg, route oral; conditions: in vivo
[2] = Plasma clearance after IV dosing at 1 mg/kg in rat; assay type: ADME, organism-based; design: dose 1 mg/kg, route intravenous; conditions: read-out: Clp
[3] = Elimination half-life after oral administration at a dose of 4 mg/kg in rat; assay type: ADME, organism-based; design: dose 4 mg/kg, route oral; conditions: in vivo
[4] = Bioavailability after oral administration at a dose of 4 mg/kg in rat; assay type: ADME, organism-based; conditions: in vivo
Adenosine receptor A1 = target: T1, Adenosine receptor A1 (Cavia porcellus, UniProt P47745); experiment: Agonistic activity against adenosine A1 receptor in guinea pig isolated hearts; assay type: functional
T1 sequence (P47745 whole entry): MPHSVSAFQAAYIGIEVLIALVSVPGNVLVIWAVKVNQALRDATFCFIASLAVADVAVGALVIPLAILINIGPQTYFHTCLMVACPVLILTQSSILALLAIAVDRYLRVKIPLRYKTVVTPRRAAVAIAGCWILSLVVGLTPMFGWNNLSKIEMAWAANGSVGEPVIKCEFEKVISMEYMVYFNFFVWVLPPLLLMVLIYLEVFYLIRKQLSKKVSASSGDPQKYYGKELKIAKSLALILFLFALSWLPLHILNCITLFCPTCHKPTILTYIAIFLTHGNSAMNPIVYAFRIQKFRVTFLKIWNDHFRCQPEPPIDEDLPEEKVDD

[5] = target: T2, Adenosine receptor A1 (Cavia porcellus) (UniProt P47745); experiment: Binding affinity against […] using [35S]GTP-gamma-S, radioligand in guinea pig.; assay type: functional
T2 sequence (whole entry): T1 sequence (P47745 whole entry)

[6] = Elimination half-life after IV dosing at 1 mg/kg in rat; assay type: ADME, organism-based; design: dose 1 mg/kg, route intravenous; conditions: in vivo
[7] = target: T2, Adenosine receptor A1 (Cavia porcellus)
[8] = target: T2, Adenosine receptor A1 (Cavia porcellus); remark: listed apart in the source
[9] = Cmax after oral administration at a dose of 2 mg/kg in rat; assay type: ADME, organism-based; design: dose 2 mg/kg, route oral; conditions: in vivo
[10] = Plasma clearance after IV dosing at 0.5 mg/kg in rat; assay type: ADME, organism-based; design: dose 0.5 mg/kg, route intravenous; conditions: read-out: Clp
[11] = Elimination half-life after IV dosing at 0.5 mg/kg in rat; assay type: ADME, organism-based; design: dose 0.5 mg/kg, route intravenous; conditions: in vivo
[12] = Elimination half-life after oral administration at a dose of 2 mg/kg in rat; assay type: ADME, organism-based; design: dose 2 mg/kg, route oral; conditions: in vivo
[13] = Bioavailability after oral administration at a dose of 2 mg/kg in rat; assay type: ADME, organism-based; conditions: in vivo
[14] = target: T2, Adenosine receptor A1 (Cavia porcellus); experiment: Binding affinity against adenosine A1 receptor using [3H]CPX in guinea pig DDT membrane; 117+/-46
[15] = target: T2, Adenosine receptor A1 (Cavia porcellus); experiment: Binding affinity against adenosine A1 receptor using [3H]CCPA in guinea pig DDT membrane; 12.7+/-1.5

Compound	Cmax [1]	clearance [2]	half-life [3]	bioavailability [4]	EC50 (Adenosine receptor A1)	efficacy relative to CPA [5]	half-life [6]	Ki low [7]	Ki high [8]	Cmax [9]	clearance [10]	half-life [11]	half-life [12]	bioavailability [13]	Ki low [14]	Ki high [15]
OC1[C@@H](O)C(n2cnc3c(NC4CCOC4)ncnc32)O[C@@H]1CSc1ccccc1F (single isomer, unassigned)	107 ng/mL	69.4 mL/min/kg	78 min	12.3%	1260 nM	72%	24 min	506 nM	79 nM							
OC1[C@@H](O)C(n2cnc3c(NC4CCOC4)ncnc32)O[C@@H]1COc1ccccc1F (single isomer, unassigned)					200 nM	78%				60.3 ng/mL	202 mL/min/kg	18 min	96 min	81%	117 nM	12.7 nM
